Reference: patent publication US20100173888A1 (Pfizer Inc, priority 2008, published 2010)
Structures can show the parent of a compound that is named as a salt.

Each compound was assayed against human recombinant H-PGDS (Homo sapiens, UniProt O60760) (assay: Fluorescence intensity h-PGDS TBA enzyme assay (PGH2 depletion, MDA/TBA fluorescence)). Details: 1:175,000 human recombinant H-PGDS, 42 second reaction, 3-fold serial dilutions, highest concentration typically 1 μM.
Format: biochemical
Description: Fluoresecence Intensity h-PGDSTBA Enzyme Assay
Prostaglandin D Synthase (PGDS) converts the substrate prostaglandin H2 (PGH2) to prostaglandin D2. The depletion of PGH2 was measured via an Fe(II) reduction of the remaining PGH2 to malondialdehyde (MDA) and 12-HHT. The enzyme assay is based on the quantitative formation of a fluorescent complex from the non-fluorescent compounds MDA and 2-thiobarbituric acid (TBA), substantially as described in U.S. patent application publication US-2004/152148 by Lombardt.
The enzyme assay (31 μls) contained 100 mM Tris base pH 8.0, 100 μM MgCl2, 0.1 mg/ml IgG Rabbit serum, 5.0 μM PGH2 (Cayman; ethanol solution, #17020), 2.5 mM L-Glutathione (Sigma; reduced form. #G4251), 1:175,000 human recombinant H-PGDS (from 1 mg/ml), 0.5% DMSO and inhibitor (varying concentration). Three μls of diluted inhibitor (dissolved in DMSO) was plated into a 384-well assay plate followed by a 25 μl addition of an enzyme solution containing h-PGDS, Tris, MgCl2, IgG and L-Glutathione. After preincubation of inhibitor and enzyme solution for 10 minutes at room temperature, the reaction was initiated with a 3 μl addition of substrate solution in 10 mM HCl. The reaction was terminated after 42 second by the addition (3 μl) of stop buffer containing FeCl2 and citric acid. After addition of 45.5 μls of TBA plates were heated for one hour in a 70° C. oven. Plates were cooled at room temperature overnight and read on a plate reader the next day with excitation @ 530 nm and emission @ 565 nm.
IC50' s of inhibitors were calculated with a 4-parameter fit using 11 inhibitor concentrations in duplicate with 3-fold serial dilutions. Controls on each plate included no inhibitor (zero % effect) and an inhibitor 10-fold in excess of its' IC50 (100% effect). The highest inhibitor concentration tested was typically 1 μM.

human recombinant H-PGDS, sequence (O60760 whole entry): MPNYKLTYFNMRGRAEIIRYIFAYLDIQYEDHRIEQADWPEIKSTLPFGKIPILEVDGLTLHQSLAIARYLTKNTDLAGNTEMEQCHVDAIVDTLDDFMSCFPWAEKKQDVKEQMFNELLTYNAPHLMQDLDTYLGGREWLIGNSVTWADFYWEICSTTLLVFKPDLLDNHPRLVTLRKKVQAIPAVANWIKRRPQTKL

Compound | IC50 [nM]
COC(=O)C1(NC(=O)c2ccc(-c3cccc(F)c3)nc2)CC1 [Example 2, Methyl 1-({[6-(3-fluorophenyl)pyridin-3-yl]carbonyl}amino)cyclopropanecarboxylate] | 319
CC(C)OCC1(O)CCC(NC(=O)c2ccc(-c3cccc(F)c3)nc2)CC1 (stereo not shown) [Example 226, 6-(3-Fluorophenyl)-N-[4-hydroxy-4-(isopropoxymethyl)cyclohexyl]nicotinamide] | 13.2
Cc1ccnn1CC(=O)N[C@H]1CC[C@H](NC(=O)c2ccc(-c3cccc(F)c3)nc2)CC1 [Example 113M, 6-(3-fluorophenyl)-N-(trans-4-{[(5-methyl-1H-pyrazol-1-yl)acetyl]amino}cyclohexyl)nicotinamide] | 7.6
CC(C)(O)C(=O)N[C@H]1CC[C@H](NC(=O)c2ccc(-c3cccc(F)c3)nc2)CC1 [Example 143, 6-(3-Fluorophenyl)-N-{trans-4-[(2-hydroxy-2-methylpropanoyl)amino]cyclohexyl}nicotinamide] | 7.2
6-(3-Fluorophenyl)-N-(cis-2-hydroxy-2,3-dihydro-1H-inden-1yl]nicotinamide [Example 130] | 15.2
CC(C)n1ncc2c1CCCC2NC(=O)c1ccc(-c2cccc(F)c2)nc1 (stereo not shown) [Example 129, 6-(3-Fluorophenyl)-N-(1-isopropyl-4,5,6,7-tetrahydro-1H-indazol-4-yl)nicotinamide] | 194
Cn1nccc1C(=O)NC[C@H]1CCC[C@@H](NC(=O)c2ccc(-c3cccc(F)c3)nc2)C1 (relative stereo) [Example 255] | 12.3
CCCOCC1(O)CCC(NC(=O)c2ccc(-c3cccc(F)c3)nc2)CC1 (stereo not shown) [Example 228, 6-(3-Fluorophenyl)-N-[4-hydroxy-4-(propoxymethyl)cyclohexyl]nicotinamide] | 17.5
CN1CCN(C(=O)C[C@H]2CC[C@@H](NC(=O)c3ccc(-c4cccc(F)c4)nc3)CC2)CC1 [Example 274, 6-(3-Fluorophenyl)-N-{cis-4-[2-(-methylpiperazin-1-yl)-2-oxoethyl]cyclohexyl}nicotinamide] | 13.7
O=C(NC1CCCc2ccccc21)c1ccc(-c2ccccc2)nc1 (stereo not shown) [Example 120, 6-Phenyl-N-(1,2,3,4-tetrahydronaphthalen-1-yl)nicotinamide] | 1.77
CNC(=O)OC(C)(C)[C@H]1CC[C@H](NC(=O)c2ccc(-c3cccc(F)c3)nc2)CC1 [Example 229, 1-[trans-4-({[6-(3-Fluorophenyl)pyridin-3-yl]carbonyl}amino)cyclohexyl]-1-methylethyl methylcarbamate] | 2.5
O=C(NC1CCCCC1)c1ccc(-c2ccc(F)cc2)nc1 [Example 22, N-Cyclohexyl-6-(4-fluorophenyl)nicotinamide] | 40.8
COCCNC(=O)[C@H]1CC[C@H](NC(=O)c2ccc(-c3cccc(F)c3)nc2)CC1 [Example 113I, 6-(3-fluorophenyl)-N-{trans-4-[(2-methoxyethyl)carbamoyl]cyclohexyl}nicotinamide] | 10.5
C[C@@H](N)C(=O)N[C@H]1CC[C@H](NC(=O)c2ccc(-c3cccc(F)c3)nc2)CC1 [Example 113Q, N-[trans-4-(D-alanylamino)cyclohexyl]-6-(3-fluorophenyl)nicotinamide] | 9.7
CC(C)(O)CNC(=O)[C@@H]1CC[C@H](NC(=O)c2ccc(-c3cccc(F)c3)nc2)C1 [Example 171, 6-(3-Fluorophenyl)-N-{(1S,3R)-3-[(2-hydroxy-2-methylpropyl)carbamoyl]cyclopentyl}nicotinamide] | 6.3
CN1CCN(C(=O)C2(C#N)CCCC(NC(=O)c3ccc(-c4cccc(F)c4)nc3)C2)CC1 (stereo not shown) [Example 263, N-{3-Cyano-3-[(4-methylpiperazin-1-yl)carbonyl]cyclohexyl}-6-(3-fluorophenyl)nicotinamide] | 5
CN1CCN(C(=O)[C@H]2CC[C@@H](NC(=O)c3ccc(-c4cccc(F)c4)nc3)C2)CC1=O [Example 182, 6-(3-Fluorophenyl)-N-[(1R,3S)-3-[(4-methyl-3-oxopiperazin-1-yl)carbonyl]cyclopentyl}nicotinamide] | 17.8
COc1cccc(-c2ccc(C(=O)NC3CCCCC3)cn2)c1 [Example 20, N-Cyclohexyl-6-(3-methoxyphenyl)nicotinamide] | 105
O=C(NC1CCCc2ccccc21)c1ccc(-c2cccc(F)c2)nc1 (stereo not shown) [Example 122, 6-(3-Fluorophenyl)-N-(1,2,3,4-tetrahydronaphthalen-1-yl)nicotinamide] | 4.16
Cc1cccc(-c2ccc(C(=O)NC3CCCCC3)cn2)c1 [Example 19, N-Cyclohexyl-6-(3-methylphenyl)nicotinamide] | 10.2
CC(C)(O)[C@H]1CC[C@@H](NC(=O)c2ccc(-c3cccc(F)c3)nc2)CC1 [Example 275, 6-(3-Fluorophenyl)-N-[cis-4-(1-hydroxy-1-methylethyl)cyclohexyl]nicotinamide] | 81.8

More lines, now with the values ahead:

IC50 [nM] | Compound
8.8 | O=C(N[C@H]1CC[C@H](C(=O)N[C@@H]2CCOC2)CC1)c1ccc(-c2cccc(F)c2)nc1 [Example 113E, 6-(3-fluorophenyl)-N-{trans-4-[(3R)-tetrahydrofuran-3-ylcarbamoyl]cyclohexyl}nicotinamide]
17.5 | N[C@@H]1[C@H]2CN(C(=O)[C@H]3CCC[C@@H](NC(=O)c4ccc(-c5cccc(F)c5)nc4)C3)C[C@@H]12 [Example 190, N-cis-3-{[(1R,5S,6S)-6-Amino-3-azabicyclo[3.1.0]hex-3-yl]carbonyl}cyclohexyl]-6-(3-fluorophenyl)nicotinamide hydrochloride]
13 | CN(C(=O)[C@H]1CC[C@H](NC(=O)c2ccc(-c3cccc(F)c3)nc2)CC1)C1CCNCC1 [Example 211, 6-(3-Fluorophenyl)-N-{trans-4-[methyl(piperidin-4-yl)carbamoyl]cyclohexyl}nicotinamide]
189 | N[C@@H]1CCC[C@H](NC(=O)c2ccc(-c3cccc(F)c3)nc2)C1 (relative stereo) [Example 200, N-[cis-3-Aminocyclohexyl]-6-(3-fluorophenyl)nicotinamide]
5.6 | O=C(N[C@@H]1CC[C@H](C(=O)N2CCOCC2)C1)c1ccc(-c2cccc(F)c2)nc1 [Example 179, 6-(3-Fluorophenyl)-N-[(1R,3S)-3-(morpholin-4-ylcarbonyl)cyclopentyl]nicotinamide]
75.2 | CN(C)CCNC(=O)[C@H]1CC[C@@H](NC(=O)c2ccc(-c3cccc(F)c3)nc2)C1 [Example 183]
29.2 | O=C(N[C@@H]1CCC[C@H](CN2CCC2)C1)c1ccc(-c2cccc(F)c2)nc1 (relative stereo) [Example 258]
10.8 | N[C@H]1CCCC[C@H]1NC(=O)[C@H]1CC[C@H](NC(=O)c2ccc(-c3cccc(F)c3)nc2)CC1 [Example 113D, N-(trans-4-{[(1R,2S)-2-aminocyclohexyl]carbamoyl}cyclohexyl)-6-(3-fluorophenyl)nicotinamide]
9 | O=C(N[C@H]1CC[C@@H](C(=O)N2CCNCC2)C1)c1ccc(-c2cccc(F)c2)nc1 [Example 176, 6-(3-Fluorophenyl)-N-[(1S,3R)-3-(piperazin-1-ylcarbonyl)cyclopentyl]nicotinamide]
27.4 | O=C(N[C@@H]1CCC[C@@H](C(=O)O)C1)c1ccc(-c2cccc(F)c2)nc1 (relative stereo) [Example 238A, trans-3-({[6-(3-Fluorophenyl)pyridin-3-yl]carbonyl}amino)cyclohexanecarboxylic acid]
192 | N[C@H]1CCC[C@H](NC(=O)c2ccc(-c3cccc(F)c3)nc2)C1 (relative stereo) [Example 244, N-[trans-3-Aminocyclohexyl]-6-(3-fluorophenyl)nicotinamide]
8.9 | O=C(N[C@@H]1CC[C@H](C(=O)N2CC[C@@H](F)C2)C1)c1ccc(-c2cccc(F)c2)nc1 [Example 180, 6-(3-Fluorophenyl)-N-[(1R,3S)-3-{[(3R)-3-fluoropyrrolidin-1-yl]carbonyl}cyclopentyl]nicotinamide]
15.3 | CN(C(=O)[C@@H]1CCC[C@H](NC(=O)c2ccc(-c3cccc(F)c3)nc2)C1)C1CCNCC1 (stereo in doubt) [Example 192, 6-(3-Fluorophenyl)-N-{(1S,3R)-3-[methyl(piperidin-4-yl)carbamoyl]cyclohexyl}nicotinamide]
81 | CC(C)(O)[C@@H]1CCC[C@H](NC(=O)c2ccc(-c3cccc(F)c3)nc2)C1 (relative stereo) [Example 262]
22.7 | CC(C)(O)[C@@H]1CC[C@H](NC(=O)c2ccc(-c3cccc(F)c3)nc2)C1 [Example 162, 6-(3-fluorophenyl)-N-[(1S,3R)-3-(1-hydroxy-1-methylethyl)cyclopentyl]nicotinamide]
9.6 | CC(C)(CO)NC(=O)[C@H]1CCC[C@@H](NC(=O)c2ccc(-c3cccc(F)c3)nc2)C1 (relative stereo) [Example 196]
